Assay results from patent US20240408112A1, “METHOD FOR PREVENTING OR TREATING PULMONARY ARTERIAL HYPERTENSION BY USING 7-DEHYDROCHOLESTEROLS OR SALTS, OXIDES, METABOLITES, OR DERIVATIVES THEREOF” (EXCELSIOR PHARMATECH LABS., priority 2023, published 2024).

Tests used:
[1] = tested on: TGF-β-stimulated PAI-1 promoter activity; experiment: TGF-β stimulated Pai-1 luciferase assay in MLECs-clone32 cells; format: cell-based; conditions: TGF-β 50 pM, 4 hours, read-out: IC50 value of compound inhibiting TGF-β-stimulated Pai-1 luciferase activity (%)
Excerpt: TGF-β Stimulated Pai-1 Luciferase Assay
MLECs-clone32 cell line was used to measure the impact of different compounds on the downstream gene, plasminogenactivator inhibitor 1 (PAI-1) performance stimulated by TGF-β. MLECs-clone32 is an expression construct that is stably transfected for the Mv1Lu cell line, and the expression construct PAI-1 Luciferase contains a truncated (PAI-1) promoter fused to the firefly luciferase reporter gene^11,12. The activity stimulated by the truncated PAI-I promoter was quantified by using a luciferase assay. The luciferase activity stimulated by TGF-β in cells without compound treatment was set as 100%, and the effects of each compound on TGF-β-stimulated PAI-I promoter activity were compared. The steps for measuring Pai-1 luciferase activity include using a 96-well plate (DMEM medium containing 10% FBS), seeding each well with 1.5×10^5 cells, and culturing in an incubator overnight. After discarding the medium the next day, cells in DMEM medium with or without the addition of test compounds were treated with recombinant TGF-β (50 pM) and allowed to react in a 37° C. incubator for 4 hours. The cell culture medium was aspirated, washed with PBS, and the activity of Pai-1 luciferase was evaluated by luciferase assay.

[2] = tested on: human pulmonary artery endothelial cells (hPAEC); experiment: BrdU cell proliferation assay, 10% FBS, hPAEC; format: cell-based; conditions: Homo sapiens, Endothelial cell, read-out: EC50 (concentration for 50% of maximal effect)
Procedure: (§1) BrdU (5-bromo-2-deoxyuridine) cell proliferation assay (BrdU assay)
(§2) A 48-well plate was used, and 1.5×10^4 cells were implanted in each well. After 24 hours, the medium was changed to serum-free culture medium and synchronized for 24 hours. A 2-fold concentration of the compound in serum-free culture medium is prepared and the cells were pretreated for 1 hour. Then, the same volume of culture medium containing 20% fetal bovine serum (FBS) was added to dilute the compound. The final concentration was 10% FBS culture medium and 1 times the concentration of the compound. In the experimental group that added TGF-β, the same volume of TGF-β culture medium containing 10 ng/mL was added, with a final concentration of 5 ng/mL TGF-β and 1 times the concentration of the compound, and in the experimental group added with TGF-β, the entire process was conducted in culture medium containing 0.1% serum. Then, BrdU reagent was added about 6 hours later, and the cells were collected the next day for enzyme-linked immunosorbent assay (ELISA) analysis, the compound treatment time was about 24 hours, and the BrdU treatment time was about 18 hours.
(§3) Five compounds to be tested were screened by cell survival assay (MTT assay) and BrdU (5-bromo-2-deoxyuridine) cell proliferation assay, and the information of these compounds was listed in Table 1 below. Tables 2 and 3 respectively listed the growth inhibitions of on human pulmonary artery endothelial cells (hPAEC), human pulmonary artery smooth muscle cells (hPASMC), normal rat pulmonary artery smooth muscle cells (rPASMC, as the control group, represented by “CON”), and rat pulmonary artery smooth muscle cells (represented by “MCT”), by the five compounds to be tested under the conditions of 10% FBS, 0.1% FBS and 100 pM TGF-β.

[3] = tested on: human pulmonary artery smooth muscle cells (hPASMC); experiment: BrdU cell proliferation assay, 10% FBS, hPASMC; format: cell-based; conditions: Homo sapiens, read-out: EC50 (concentration for 50% of maximal effect)
Procedure: as §1, §2, §3

[4] = tested on: human pulmonary artery endothelial cells (hPAEC); experiment: BrdU cell proliferation assay, 0.1% FBS, 100 pM TGF-β, hPAEC; format: cell-based; conditions: Homo sapiens, Endothelial cell
Procedure: as §1, §2, §3

[5] = tested on: human pulmonary artery smooth muscle cells (hPASMC); experiment: BrdU cell proliferation assay, 0.1% FBS, 100 pM TGF-β, hPASMC; format: cell-based; conditions: Homo sapiens
Procedure: as §1, §2, §3

[6] = tested on: normal rat pulmonary artery smooth muscle cells (rPASMC CON); experiment: BrdU cell proliferation assay, 0.1% FBS, 100 pM TGF-β, rPASMC CON; format: cell-based; conditions: Rattus norvegicus
Procedure: as §1
as §2, with “with a final concentration of 5 ng/mL TGF-β and 1 times the concentration” left out
Five compounds to be tested were screened by cell survival assay (MTT assay) and BrdU (5-bromo-2-deoxyuridine) cell proliferation assay, and the information of these compounds was listed in Table 1 below.

[7] = tested on: PAH rat pulmonary artery smooth muscle cells (rPASMC MCT); experiment: BrdU cell proliferation assay, 0.1% FBS, 100 pM TGF-β, rPASMC MCT; format: cell-based; conditions: Rattus norvegicus
Procedure: as §1, §2, §3

[8] = tested on: monocrotaline induced pulmonary hypertension rat; experiment: Monocrotaline-induced pulmonary arterial hypertension rat model, Example 2 (7-DHC, 042); format: in vivo; conditions: 50 mg/kg IP
Excerpt: (§4) Pulmonary arterial hypertension animal experimental model
(§5) The present disclosure utilizes injection of monocrotaline to induce symptoms of pulmonary arterial hypertension in rats to establish a pulmonary arterial hypertension animal experimental model suitable for screening test drugs.
(§6) The diagnostic method of clinical pulmonary arterial hypertension standards is right heart catheterization, which is defined as mean pulmonary arterial pressure (mPAP) greater than or equal to 20 mmHg. The diagnostic criteria for pulmonary arterial hypertension, in addition to an increase in mean pulmonary arterial pressure, need to be combined with pulmonary vascular resistance (PVR) greater than 3 Wood unit. The right ventricle pressure (RVP) and systemic mean blood pressure (mbp) in rats with pulmonary arterial hypertension were measured by Millar Model PCU200 pressure system, and the heart rate (HR) was also monitored at the same time. After measuring the hemodynamic data, the arterial blood was extracted from the carotid artery of the pulmonary arterial hypertension rat, and the Abbott blood oximeter (i-STAT) combined with Abbott's special chip cartridge (i-STAT Cartridge G3+) was used to measure arterial gas analysis data such as pH, PaO2, PaCO2, HCO3 and base excess (BE) value in quantitative whole blood samples. The normal pH value is between 7.35 and 7.45, and the pH value indicates whether the experimental animal has the condition of acidemia, alkalemia, acidosis or alkalosis. The normal value of PaO2 is between 80 and 100 mmHg, which reflects the effectiveness of gas exchange (ventilation/perfusion). The normal value of PaCO2 is between 35 and 45 (such as 38 and 42) mmHg, which can evaluate the effectiveness of alveolar ventilation. The acid produced by food, tissue decomposition, inflammation and hypoxia rely on the lungs to excrete volatile acid CO2 (short-term) and the bicarbonate (HCO3^−) produced by the kidneys (long-term) to neutralize non-volatile acids, while the normal value of bicarbonate hydrogen radical (HCO3^−) is between 22 and 26 meq/L. BE is the base excess value, its normal value ranges from −2 to +2, the negative value represents the degree of alkali ion deficiency in the blood, a negative BE value (−) that is too high indicates metabolic acidosis, and a positive value (+) that is too high is metabolic alkalosis. At the end of the experiment, the rats were sacrificed and their hearts were removed and the left and right ventricles were separated and weighed (RV)/(S)+(LV).
Monocrotaline (MCT) was utilized to induce pulmonary hypertension rat animal model, the TGF-β receptor inhibitor 7-DHC (039) and compound No. 042 were tested via intraperitoneal (IP) administration, and the physiological parameters of the animals were collected, wherein includes measuring right ventricle pressure, systemic arterial pressure, heartbeat and right ventricle hypertrophy, as well as observing and analyzing the pulmonary artery thickening and blood oxygenation levels through pathological sections of lung tissue. Specifically, 7-DHC (039) was divided into two groups with a dosage of 10 mg/kg or 20 mg/kg, the dosage of group 042 was 50 mg/kg, each dosage group has 3 rats (n=3), while the control group (CON) and the pulmonary arterial hypertension rat group (MCT) had 6 rats (n=6) respectively.

[9] = tested on: normal rat pulmonary artery smooth muscle cells (rPASMC CON); experiment: BrdU cell proliferation assay, 10% FBS, rPASMC CON; format: cell-based; conditions: Rattus norvegicus, read-out: EC50 (concentration for 50% of maximal effect)
Procedure: as §1, §2, §3

[10] = tested on: PAH rat pulmonary artery smooth muscle cells (rPASMC MCT); experiment: BrdU cell proliferation assay, 10% FBS, rPASMC MCT; format: cell-based; conditions: Rattus norvegicus, read-out: EC50 (concentration for 50% of maximal effect)
Procedure: as §1, §2, §3

[11] = tested on: monocrotaline induced pulmonary arterial hypertension rat; experiment: Monocrotaline-induced pulmonary arterial hypertension rat model, Example 3 (7-DHC vs macitentan); format: in vivo; conditions: 30 mg/kg oral
Excerpt: as §4, §5, §6
Monocrotaline was utilized to induce pulmonary arterial hypertension rat animal model, intraperitoneal injection (IP) TGF-β receptor inhibitor 7-DHC (039) and oral administration of macitentan (soluble in methylcellulose), 7-DHC (039) was divided into two groups according to the dosage: 10 mg/kg or 20 mg/kg, and the dosage of macitentan group was 30 mg/kg.

[12] = hPAEC, 100 pM TGF-β, 0.1% FBS, read-out: EC50
[13] = hPASMC, 100 pM TGF-β, 0.1% FBS, read-out: EC50
[14] = CON (normal rPASMC), 100 pM TGF-β, 0.1% FBS, read-out: EC50
[15] = MCT (PAH rPASMC), 100 pM TGF-β, 0.1% FBS, read-out: EC50

CC(C)CCC[C@@H](C)[C@H]1CC[C@H]2C34C=CC5(C[C@@H](OC(=O)CBr)CC[C@]5(C)[C@H]3CC[C@]12C)n1c(=O)n(C)c(=O)n14 (stereo partly shown) [Code 203, MeTC7] was tested, and the IC50 [1] was 17.5 µM.
In the case of O=c1cc(-c2ccccc2)oc2cc(O)c(O)c(O)c12 [Code 042, Baicalein], the EC50 [2] is reported as 20 µM, the EC50 [3] is reported as 5 µM and the EC50 [4, 12] is reported as 15 µM. It also gave an EC50 [5, 13] of 4 µM, an EC50 [6, 14] of 52 µM and an EC50 [7, 15] of 9 µM. For the same compound, the IC50 [1] was 14.8 µM, the “Right ventricle hypertrophy (RV/S+LV), in words” value ([8]; compared with MCT rats) was “slightly lower” and the “Weight and activity of the rats” value ([8]; second week of administration, sacrificed early on day 21) was “significantly decreased”.
Compound CCCNS(=O)(=O)Nc1ncnc(OCCOc2ncc(Br)cn2)c1-c1ccc(Br)cc1 [Code 053, Macitentan] has an EC50 [2] of 175 µM, an EC50 [3] of 100 µM and an EC50 [9] of 142 µM. For the same compound, the EC50 [10] was 114 µM, the EC50 [4, 12] was 40 µM and the EC50 [5, 13] was 59 µM. For the same compound, the EC50 [6, 14] was 96 µM, the EC50 [7, 15] was 87 µM and the IC50 [1] was 82.9 µM. For the same compound, the “Blood vessel thickening, in words” value [11] was “reduction in blood vessel thickening was also observed”, the “Survival rate compared with the 7-DHC (039) group, in words” value [11] was “significantly worse” and the Animal survival status ([11]; 23rd day after monocrotaline induction) was “died”. The “Body weight and activity of the rats” value ([11]; second week of administration) was “not greatly affected”.
For O=C(O)[C@H](O)Cc1ccc(O)c(O)c1 [Code 056, Danshensu], the EC50 [2] was 272 µM, the EC50 [3] was 124 µM and the EC50 [9] was 35 µM. The EC50 [10] was 25 µM, the EC50 [4] was 155 µM and the EC50 [5] was 100 µM. The EC50 [6] was 50 µM and the EC50 [7] was 36 µM.
Work on O=c1c(O)c(-c2ccc(O)c(O)c2)oc2cc(O)ccc12 [Code 050, Fisetin] yielded an EC50 ([2]; hPAEC, 10% FBS) of 22 µM, an EC50 ([3]; hPASMC, 10% FBS) of 27 µM and an EC50 ([9]; CON (normal rPASMC), 10% FBS) of 59 µM. For the same compound, the EC50 ([10]; MCT (PAH rPASMC), 10% FBS) was 38 µM, the EC50 [4, 12] was 40 µM and the EC50 [5, 13] was 35 µM. For the same compound, the EC50 [6, 14] was 106 µM, the EC50 [7, 15] was 79 µM and the IC50 [1] was 44.1 µM.
